# “Also recorded” adds a separate entry of the source. Read-outs that look alike come from different tables or passages of the source.
# Experiments:
# CIA = conditions: 10 mg/kg, cited from earlier work
# TRPM4 = TRPM4 (Homo sapiens, UniProt Q8TD43); conditions: cited from earlier work
# OCL formation = assay: OCL (osteoclast) formation assay; assay type: cell-based
# [1] = Water solubility / hydrophobicity; assay type: physicochemical
# [2] = test system: collagen-induced arthritis (CIA); assay: Collagen-induced arthritis (CIA) in mice, blinded arthritic index and paw swelling; assay type: in vivo, mouse; conditions: DCPA 21 mg/kg/day
# Procedure: Effects on swelling, inflammatory cell invasion in joints, serum cytokines and bone erosion were measured.
# Male DBA/1 mice were used, from Harlan Laboratories, Frederick Md. […] Briefly, type II collagen (CII) was injected in complete Freund's adjuvant at 100 μg per animal (˜4 μg/kg) at day 1 and, after 21 days, a booster dose of 100 μg C II in Freund's incomplete adjuvant. […] Mice were monitored for arthritis and scored in a blinded manner. Swelling of paws was be graded on scale from 0 to 4 indicating number of swollen digits. All paws were evaluated, so that the maximal arthritic index per mouse was 16. Additionally, hind paw swelling was measured using digital calipers on day 0, and each day on days 23-40. Analysis of the bones and joints for arthritis was done on H&E stained sections of hind paws, by blinded observation. This scored synovial expansion and inflammation, joint damage including pannus, and bone degradation, each on a scale of 0-3, with maximum score of 9.
# [3] = test system: collagen-induced arthritis (CIA); assay: Histology of H&E stained hind paw sections in CIA mice, blinded score; assay type: in vivo, mouse
# Procedure: Male DBA/1 mice were used, from Harlan Laboratories, Frederick Md. […] Briefly, type II collagen (CII) was injected in complete Freund's adjuvant at 100 μg per animal (˜4 μg/kg) at day 1 and, after 21 days, a booster dose of 100 μg C II in Freund's incomplete adjuvant. […] Mice were monitored for arthritis and scored in a blinded manner. Swelling of paws was be graded on scale from 0 to 4 indicating number of swollen digits. All paws were evaluated, so that the maximal arthritic index per mouse was 16. Additionally, hind paw swelling was measured using digital calipers on day 0, and each day on days 23-40. Analysis of the bones and joints for arthritis was done on H&E stained sections of hind paws, by blinded observation. This scored synovial expansion and inflammation, joint damage including pannus, and bone degradation, each on a scale of 0-3, with maximum score of 9. […] For histological analysis, two paws from each animal were analyzed separately and blindly, and are calculated as two specimens per animal; however, if averages are used with n=animal number, there was no effect on differences (not shown).
# Hind paws of animals were decalcified, paraffin embedded, cut, and stained with hematoxylin and eosin (FIGS. 2A-C). […] Therefore, blinded qualitative grading was used. […]
# [4] = test system: collagen-induced arthritis (CIA); assay: Micro-computed tomography and morphometry of paws in CIA mice; assay type: in vivo, mouse; conditions: high dose CIA/DCPA (21 mg)
# Procedure: Analysis by micro-computed tomography was as described (14). In brief, paws fixed in Millonig's solution were scanned on a Viva CT40 instrument (Scanco, Bassersdorf, Switzerland) with three-dimensional reconstruction by the manufacturer's instrument-specific software. The scan section increment was 20 μm; 3-D reconstruction used a density cutoff of 211 mg/cm^3. Analysis of trabecular thickness and trabecular spacing used the plate model.
# [5] = test system: serum inflammatory cytokines; assay: Serum analysis for cytokines in CIA mice (V-PLEX panels); assay type: in vivo, mouse
# Procedure: Heart blood at sacrifice, 40 days, was used for analysis. Plasma was separated by centrifiigation and frozen in aliquots at −20° C. until used. Production of anti-CII antibodies was evaluated by ELISA (Rheumera, Astarte Biologies, Redmond, Wash.). Production of cytokines was evaluated using V-PLEX panels in 96-well plates (Meso Scale Discovery, Rockville, Md.).
# [6] = test system: osteoclasts and CD3 T cells in tissue sections; assay: Antibody labeling of sections (anti-ATPa3/TCIRG osteoclasts, anti-CD3 T cells) in CIA mice; assay type: in vivo, mouse; conditions: high dose CIA/DCPA relative to CIA/placebo
# Procedure: Antibodies used were, for TCIRGI, mouse monoclonal (clone 6H3) antibody (Sigma-Aldrich) at 1:100 dilution. For CD3, anti-CD3 mouse monoclonal antibody (PC3/188A) against synthetic peptide spanning amino acids 156-168 of the cytoplasmic domain of human CD3-ε chain was used, at 1:100 dilution. Briefly, sections were blocked in PBS with 2% hydrogen peroxide for 5 minutes and then in PBS with 2% BSA for two hours, then reacted overnight with antibodies at indicated concentrations in PBS with 0.01% tween 20, and after washing with biotinylated anti-mouse at 1:1000 dilution. Then streptavidin-horseradish peroxidase, and diaminobenzidine substrate were added. Hematoxylin and eosin counterstain was use to show tissue features. Imaging used a Nikon TE2000 inverted microscope, with 14-bit 2048×2048 pixel monochrome CCD and RGB filters to reconstruct color (Spot, Sterling Heights, Mich.).
# [7] = General health of treated CIA mice (weight, activity); assay type: in vivo, mouse; conditions: about three weeks of DCPA
# Procedure: Male DBA/1 mice were used, from Harlan Laboratories, Frederick Md. […] Briefly, type II collagen (CII) was injected in complete Freund's adjuvant at 100 μg per animal (˜4 μg/kg) at day 1 and, after 21 days, a booster dose of 100 μg C II in Freund's incomplete adjuvant. Inflammation was apparent 4-8 days after the second dose, in 80% of treated joints. […] Mice were monitored for arthritis and scored in a blinded manner. Swelling of paws was be graded on scale from 0 to 4 indicating number of swollen digits. All paws were evaluated, so that the maximal arthritic index per mouse was 16. Additionally, hind paw swelling was measured using digital calipers on day 0, and each day on days 23-40. Analysis of the bones and joints for arthritis was done on H&E stained sections of hind paws, by blinded observation. This scored synovial expansion and inflammation, joint damage including pannus, and bone degradation, each on a scale of 0-3, with maximum score of 9. […] For histological analysis, two paws from each animal were analyzed separately and blindly, and are calculated as two specimens per animal; however, if averages are used with n=animal number, there was no effect on differences (not shown).
# [8] = target: CRAC channel (STIM1/Orail) (Homo sapiens, UniProt Q96D31); conditions: by destabilizing STIM1/Orail interaction; Zhou et al., 2011; cited from earlier work
# Chain of CRAC channel (STIM1/Orail) (Q96D31 whole entry): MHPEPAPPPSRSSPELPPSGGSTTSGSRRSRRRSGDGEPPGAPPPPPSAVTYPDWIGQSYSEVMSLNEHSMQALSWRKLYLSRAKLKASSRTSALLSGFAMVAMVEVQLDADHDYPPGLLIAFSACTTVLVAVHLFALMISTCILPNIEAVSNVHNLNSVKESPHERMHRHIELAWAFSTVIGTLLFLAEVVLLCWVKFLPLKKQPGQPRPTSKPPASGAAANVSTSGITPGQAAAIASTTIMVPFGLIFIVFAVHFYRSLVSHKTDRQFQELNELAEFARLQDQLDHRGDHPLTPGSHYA
# [9] = test system: human or murine osteoclasts; conditions: earlier study (ref 5), cited from earlier work
# [10] = humans, cited from earlier work
# Chain of TRPM4 (Q8TD43 whole entry, species assumed): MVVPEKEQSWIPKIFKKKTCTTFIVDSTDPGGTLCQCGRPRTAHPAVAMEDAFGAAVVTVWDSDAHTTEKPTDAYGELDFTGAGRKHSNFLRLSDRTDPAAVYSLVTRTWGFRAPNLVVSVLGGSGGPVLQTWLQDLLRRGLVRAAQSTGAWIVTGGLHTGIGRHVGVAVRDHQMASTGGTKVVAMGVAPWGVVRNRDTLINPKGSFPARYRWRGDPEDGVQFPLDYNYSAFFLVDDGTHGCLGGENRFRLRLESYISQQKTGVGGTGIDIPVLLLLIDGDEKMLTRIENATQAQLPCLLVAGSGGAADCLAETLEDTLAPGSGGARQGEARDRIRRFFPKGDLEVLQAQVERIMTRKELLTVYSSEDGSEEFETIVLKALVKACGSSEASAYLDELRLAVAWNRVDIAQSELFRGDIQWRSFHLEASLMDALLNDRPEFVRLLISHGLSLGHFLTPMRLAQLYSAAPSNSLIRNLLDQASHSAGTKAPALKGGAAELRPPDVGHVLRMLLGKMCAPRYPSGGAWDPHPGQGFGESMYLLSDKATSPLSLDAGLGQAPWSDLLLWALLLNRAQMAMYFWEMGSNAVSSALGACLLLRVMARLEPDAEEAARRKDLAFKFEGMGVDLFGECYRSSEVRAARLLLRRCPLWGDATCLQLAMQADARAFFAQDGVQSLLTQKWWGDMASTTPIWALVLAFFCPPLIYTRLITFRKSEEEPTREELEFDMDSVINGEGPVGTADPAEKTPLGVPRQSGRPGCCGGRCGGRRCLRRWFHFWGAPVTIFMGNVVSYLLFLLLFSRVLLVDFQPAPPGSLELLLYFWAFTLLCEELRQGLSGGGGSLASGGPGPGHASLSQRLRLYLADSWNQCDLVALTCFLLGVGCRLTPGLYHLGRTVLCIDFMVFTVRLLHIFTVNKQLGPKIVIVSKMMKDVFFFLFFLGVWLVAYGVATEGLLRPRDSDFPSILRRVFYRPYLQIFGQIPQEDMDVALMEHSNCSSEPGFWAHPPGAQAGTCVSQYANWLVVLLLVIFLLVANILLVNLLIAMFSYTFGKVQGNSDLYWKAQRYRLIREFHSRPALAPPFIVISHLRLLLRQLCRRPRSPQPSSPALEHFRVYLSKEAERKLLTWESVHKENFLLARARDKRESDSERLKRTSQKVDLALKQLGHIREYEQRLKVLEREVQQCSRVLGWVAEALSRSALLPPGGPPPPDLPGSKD
molecule,measurement,setting,value
"Cc1nnsc1C(=O)Nc1ccc(-n2nc(C(F)(F)F)cc2C(F)(F)F)cc1 [BTP-2, 4-methy-4-[3,5-bis(trifluorometliyl)-1H-pyrazol-1-yl]-1,2,3-thiadiazole-5-carboxanilide]","inflammatory cytokines IL1, IL6 and TNF-α",CIA; 10 days after induction,near-baseline levels
same,effect on CIA,CIA,suppressed CIA
same,concentration suppressing cytokines including 1L2 and calcium influx by TRPM4,TRPM4,low nanomolar concentrations
N-methyl-DCPA [N-MeDCPA],toxicity compared with DCPA,OCL formation; OCL assay findings,less toxic than DCPA
same,effect in OCL assay compared with DCPA,"OCL formation; same doses as DCPA, took longer",looked as good as DCPA
same,hydrophobicity,[1],very hydrophobic
"O=C(O)CC(=O)Nc1ccc(Cl)c(Cl)c1 [DCOPA, 3-(3,4-dichloroanilino)-3-oxopropanoic acid]",water solubility compared with DCPA,[1],more water soluble compound than DCPA
CN(C(=O)CC(=O)O)c1ccc(Cl)c(Cl)c1 [N-MeDCOPA],inhibition of OCL formation,OCL formation; 100 μM,shows inhibition of OCL formation
"CCC(=O)Nc1ccc(Cl)c(Cl)c1 [DCPA, N-(3,4-dichlorophenyl)propanamide]",overall swelling of joints,[2],reduced by a similar amount
same,time of maximal effect after collagen booster,[2],12 to 17 days
same,reduction of bone and cartilage damage in sections of animal feet,[3]; DCPA 21 mg/kg/day,−50%
same,histological damage score,"[3]; ankle bone of one animal, high dose CIA/DCPA (21 mg DCPA), 40 days, scale 0-9",4
same,bone volume/total volume by micro-CT,[4]; p=0.03 vs CIA/placebo,statistically greater than CIA/placebo animals
same,bone density by micro-CT,[4]; sacrifice day 40,indistinguishable from untreated controls
same,"effect on serum cytokines (TNF-α, IL-1, IL-6, CXCL1, IFN-γ)","[5]; DCPA 21 mg/kg/day, day 40 serum, vs CIA/placebo",no effect; also recorded: did not affect
same,effect on cytokine production of IL-12p70 or IL-10,"[5]; DCPA, serum of CIA mice",did not significantly affect
same,osteoclast surface area (ATPa3 labeling),[6],large and statistically significant reduction
same,adverse effects on animal weight or activity,[7],no adverse effects
same,CRAC channel activation,[8],inhibits CRAC channel activation
same,osteoclast differentiation / formation in vitro,[9],inhibits osteoclast formation in vitro
same,osteoclast differentiation / formation in vitro,"[9]; listed as 3,4-dichloropropionaniline",reduced differentiation of bone degrading osteoclasts
same,toxicity of intermittent exposure in mg/kg quantities,[10],minimal apparent toxicity
same,dose that can cause fatal methemoglobinemia,[10]; massive doses,4000 to 5000 mg/kg

# From US9950992B2, “Water soluble haloanilide calcium-release calcium channel inhibitory compounds and methods to control bone erosion and inflammation associated with arthritides” (West Virginia University, priority 2016, dated 2018)
